The values that follow come from patent US20100190843A1, “Tubulin Isotype Screening in Cancer Therapy Using Halichondrin B Analogs” (Eisai R&D Management Co., Ltd., priority 2004, published 2010).

For assay [1], the system named is HCC1419. Description: Cell growth inhibition assay (methylene blue-based). The following applies: Homo sapiens, continuous exposure 4 or 7 days, at least three experiments.
Assay [2] concerns HCC1954. The description is as above. The following applies: Homo sapiens, continuous exposure 4 or 7 days, at least three experiments. From the text:
(§1) The following human breast cancer cell lines were obtained from the ATCC. Cells were maintained according to ATCC-recommended culture conditions. AU565 (ATCC Catalog No. ATCC Catalog No. CRL-2351), BT-20 (ATCC Catalog No. HTB-19), MCF7 (ATCC Catalog No. HTB22), MDA-MB-231 (ATCC Catalog No. HTB-26), MDA-MB-435 (ATCC Catalog No. HTB-129), MDA-MB-468 (ATCC Catalog No. HTB-132), HCC38 (ATCC Catalog No. CRL-2314), HCC70 (ATCC Catalog No. CRL-2315), HCC1143 (ATCC Catalog No. CRL-2321), HCC1428 (ATCC Catalog No. CRL-2327), HCC1500 (ATCC Catalog No. CRL-2329), HCC1806 (ATCC Catalog No. CRL-2335), HCC1954 (ATCC Catalog No. CRL-2338), HCC2218 (ATCC Catalog No. CRL-2343), UACC-812 (ATCC Catalog No. CRL-1897), UACC-893 (ATCC Catalog No. CRL-1902), ZR-75-1 (ATCC Catalog No. CRL-1500), ZR-75-30 (ATCC Catalog No. CRL-1504).
(§2) Cultured human breast cancer cells were placed in 96-well plates and grown in the continuous presence of test compounds for 4 or 7 days. To expose the cells to test compounds for 7 days, medium was replaced with fresh medium containing compounds after 4 days of exposure and cells were incubated for 3 additional days. Cell growth was assessed using modifications (Amin et al., Cancer Res., 47:6040-6045, 1987; incorporated herein by reference) of a methylene blue-based microculture assay (Finlay et al., Anal. Biochem., 139:272-277, 1984; incorporated herein by reference).
(§3) To investigate the possible expression of PgP by the cell lines used in this study, the antiproliferative effects of paclitaxel were determined in the presence and absence of verapamil, a known inhibitor of PgP.

Assay [3] relates to ZR-75-1. Described as above. The settings on record: Homo sapiens, continuous exposure 4 or 7 days, at least three experiments.
Excerpt: as §1, §2, §3

The test system of assay [4] is MDA-MB-468. The assay is described as above. The settings on record: Homo sapiens, continuous exposure 4 or 7 days, at least three experiments.
Excerpt: as §1, §2, §3

The subject of assay [5] is MCF-7. Described as above. The following applies: Homo sapiens, MCF7, continuous exposure 4 or 7 days, at least three experiments.
Excerpt: as §1, §2, §3

Assay [6] concerns UACC-893. Described as above. The settings on record: Homo sapiens, continuous exposure 4 or 7 days, at least three experiments.
Excerpt: as §1, §2, §3

The test system of assay [7] is HCC1806. The assay is described as above. The following applies: Homo sapiens, continuous exposure 4 or 7 days, at least three experiments.
Excerpt: as §1, §2, §3

In assay [8] the test system is MDA-MB-435. The description is as above. The following applies: Homo sapiens, continuous exposure 4 or 7 days, at least three experiments.
Excerpt: as §1, §2, §3

Assay [9] deals with HCC1428. The description is as above. The following applies: Homo sapiens, continuous exposure 4 or 7 days, at least three experiments.
Excerpt: as §1, §2, §3

Assay [10] has as its system MDA-MB-231. The description is as above. The following applies: Homo sapiens, continuous exposure 4 or 7 days, at least three experiments.
Excerpt: as §1, §2, §3

Assay [11] concerns UACC-812. The description is as above. The following applies: Homo sapiens, continuous exposure 4 or 7 days, at least three experiments.
Excerpt: as §1, §2, §3

Assay [12] concerns HC-2218. The assay is described as above. The settings on record: Homo sapiens, continuous exposure 4 or 7 days, at least three experiments.
Excerpt: as §1, §2, §3

The test system of assay [13] is HCC70. The description is as above. The settings on record: Homo sapiens, continuous exposure 4 or 7 days, at least three experiments.
Excerpt: as §1, §2, §3

Assay [14] concerns HCC38. The description is as above. The following applies: Homo sapiens, continuous exposure 4 or 7 days, at least three experiments.
Excerpt: as §1, §2, §3

The subject of assay [15] is ZR-75-30. The assay is described as above. The settings on record: Homo sapiens, continuous exposure 4 or 7 days, at least three experiments.
Excerpt: as §1, §2, §3

The test system of assay [16] is HCC1500. The description is as above. The following applies: Homo sapiens, continuous exposure 4 or 7 days, at least three experiments.
Excerpt: as §1, §2, §3

Assay [17] relates to AU565. The assay is described as above. The settings on record: Homo sapiens, continuous exposure 4 or 7 days, at least three experiments.
Excerpt: as §1, §2, §3

Assay [18] relates to BT-20. Described as above. The following applies: Homo sapiens, continuous exposure 4 or 7 days, at least three experiments.
Excerpt: as §1, §2, §3

Assay [19] deals with HCC1143. Described as above. The settings on record: Homo sapiens, continuous exposure 4 or 7 days, at least three experiments.
Excerpt: as §1, §2, §3

For assay [20], the system named is panel of 19 human breast cancer cell lines. Description: Cell growth inhibition assay, whole panel. The format is cell-based.
Excerpt: as §1
Cultured human breast cancer cells were placed in 96-well plates and grown in the continuous presence of test compounds for 4 or 7 days. […] Cell growth was assessed using modifications (Amin et al., Cancer Res., 47:6040-6045, 1987; incorporated herein by reference) of a methylene blue-based microculture assay (Finlay et al., Anal. Biochem., 139:272-277, 1984; incorporated herein by reference).
Antiproliferative effects of four tubulin-binding anticancer agents were evaluated by a methylene blue-based cell growth inhibin assay in a panel of 19 human breast cancer cell lines. […]

Broadly, the IC50 is the point on the concentration scale where inhibition reaches its midpoint. A lower IC50 goes with greater potency. Take `C=C1C[C@@H]2CC[C@@]34C[C@H]5O[C@H]6[C@@H](O3)C3O[C@H](CCC3O[C@H]6C5O4)CC(=O)CC3[C@H](CC4O[C@@H](CCC1O2)C[C@@H](C)C4=C)O[C@H](C[C@H](O)CN)[C@@H]3OC` (stereo partly drawn) [E7389]: the IC50 came to 1.59 nM in assay [1]; 0.37 nM in [2]; 1.19 nM in assay [3]; 0.45 nM in assay [4]; 1.45 nM in assay [5]; 0.31 nM in [6]. For the same molecule, the concentration for half-maximal inhibition (IC50) in assay [7] amounted to 0.74 nM; in assay [8], 0.29 nM; in assay [9] it was 0.53 nM; in assay [10] it was 1.75 nM; in assay [11], 1.17 nM; in [12], 1.14 nM. Moreover, the IC50 turned out to be 0.63 nM in [13]; 0.4 nM in assay [14]; 1.8 nM in [15]; 0.56 nM in assay [16]; 0.65 nM in assay [17]; 0.82 nM in [18]. Also, the IC50 was 0.43 nM in assay [19] and 0.29 to 1.8 nM in [20] (Homo sapiens, range over the panel of 19 cell lines). Further, in assay [20] (panel of 19 breast cancer cell lines), the “fold-difference between IC50's in the most sensitive and the least sensitive cell line” value turned out to be 6.2 fold.
